Test results: patent US20250388565A1, “ESTROGEN RECEPTOR ALPHA DEGRADERS AND METHODS OF USE THEREOF” (Relay Therapeutics, Inc., priority 2022, published 2025)

target: T1, ERα protein (HiBiT-tagged) in ESR1_HiBiT KI MCF7 cells (Homo sapiens, UniProt P03372); assay: Nano Glo HiBiT Lytic Degradation Assay; format: cell-based; settings: 6 hours with compound, 14-point dose response 1:3, bell-shape curve fit, half-maximal effect of first Hill model, read-out: MCF7 ESR1 HiBiT - (DC50)
T1 sequence (P03372 1-595): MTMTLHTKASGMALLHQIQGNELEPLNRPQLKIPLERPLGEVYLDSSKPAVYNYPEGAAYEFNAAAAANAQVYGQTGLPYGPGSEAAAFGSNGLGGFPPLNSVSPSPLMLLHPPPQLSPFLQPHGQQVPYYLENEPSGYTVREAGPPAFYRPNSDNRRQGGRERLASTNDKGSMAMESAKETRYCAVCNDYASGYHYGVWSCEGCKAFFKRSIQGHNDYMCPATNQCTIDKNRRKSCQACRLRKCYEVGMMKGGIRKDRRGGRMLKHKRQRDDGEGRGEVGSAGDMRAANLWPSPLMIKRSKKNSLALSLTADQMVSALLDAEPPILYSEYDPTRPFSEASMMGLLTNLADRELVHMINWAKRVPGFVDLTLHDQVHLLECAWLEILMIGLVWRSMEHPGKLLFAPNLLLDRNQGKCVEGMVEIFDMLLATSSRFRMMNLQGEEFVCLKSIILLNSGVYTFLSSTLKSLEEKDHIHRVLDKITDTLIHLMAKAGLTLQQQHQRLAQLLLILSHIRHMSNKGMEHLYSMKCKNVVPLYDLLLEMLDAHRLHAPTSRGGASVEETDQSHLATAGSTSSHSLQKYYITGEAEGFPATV
Method in brief: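 HiBiT-tagged endogenous ERα remaining in MCF7 knock-in cells was quantified by lytic luminescence after a 6 h treatment. DC50 values derive from a bell-shaped curve, taken at the first Hill component's half-maximal effect.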

DC50 [nM] | SMILES
0.14 | CC[C@@H]1CCc2cc(O)ccc2[C@@H]1c1ccc(N2CCC(CN3CCN(c4ccc5c(c4)CN([C@H]4CCC(=O)NC4=O)C5=O)CC3)CC2)cc1 (single isomer, unassigned) [Compound I-112]
0.93 | O=C1CC[C@H](N2Cc3cc(N4CCN(CC5CCN(c6ccc([C@@H]7c8ccc(O)cc8C(F)(F)C[C@@H]7C7CCCC7)cc6)CC5)CC4)ccc3C2=O)C(=O)N1 [Compound I-198, (S)-3-(5-(4-((1-(4-((1R,2R)-2-cyclopentyl-4,4-difluoro-6-hydroxy-1,2,3,4-tetrahydronaphthalen-1-yl)phenyl)piperidin-4-yl)methyl)piperazin-1-yl)-1-oxoisoindolin-2-yl)piperidine-2,6-dione]
7 | O=C1CC[C@H](N2Cc3cc(N4CCN(CC5CCN(c6ccc([C@H]7c8ccc9[nH]ncc9c8CC[C@H]7c7ccccc7)cc6)CC5)CC4)ccc3C2=O)C(=O)N1 (single isomer, unassigned) [Compound I-44]
3 | C[C@@H]1O[C@@H](c2ccccc2)[C@@H](c2ccc(N3CCC(CN4CCN(c5ccc6c(c5)CN([C@H]5CCC(=O)NC5=O)C6=O)CC4)CC3)cc2)c2ccc(O)cc21 (single isomer, unassigned) [Compound I-368]
79 | O=C1CC[C@H](N2Cc3cc(N4CCN(CC5CCN(c6ccc([C@@H]7c8ccccc8CC[C@@H]7c7ccccc7)cc6)CC5)CC4)ccc3C2=O)C(=O)N1 [Compound I-47, (S)-3-(1-oxo-5-(4-((1-(4-((1R,2S)-2-phenyl-1,2,3,4-tetrahydronaphthalen-1-yl)phenyl)piperidin-4-yl)methyl)piperazin-1-yl)isoindolin-2-yl)piperidine-2,6-dione]
≥ 10000 | O=C1CCC(c2ccc(N3CCN(CCC4CCN(c5ccc([C@H]6c7ccc(O)cc7CC[C@H]6c6ccccc6)cc5)CC4)CC3)cc2)C(=O)N1 (single isomer, unassigned) [Compound I-42]
5 | CC(C)[C@@H]1CCc2cc(O)ccc2[C@@H]1c1ccc(N2CCC(CN3CCN(c4ccc5c(c4)CN(C4CCC(=O)NC4=O)C5=O)CC3)CC2)cc1 (stereo in doubt) [Compound I-129, (R)-3-(5-(4-((1-(4-((1S,2S)-6-hydroxy-2-isopropyl-1,2,3,4-tetrahydronaphthalen-1-yl)phenyl)piperidin-4-yl)methyl)piperazin-1-yl)-1-oxoisoindolin-2-yl)piperidine-2,6-dione]
≥ 10000 | O=C1CC[C@H](N2Cc3cc(N4CCN(CC5CCN(c6ccc([C@H]7c8ccc(O)cc8CC[C@H]7c7cccc(O)c7)cc6)CC5)CC4)ccc3C2=O)C(=O)N1 [Compound I-127, (3S)-3-[5-[4-[[1-[4-[(1S,2R)-6-hydroxy-2-(3-hydroxyphenyl)tetralin-1-yl]phenyl]-4-piperidyl]methyl]piperazin-1-yl]-1-oxo-isoindolin-2-yl]piperidine-2,6-dione]
1.09 | Cn1c(=O)n(C2CCC(=O)NC2=O)c2cccc(N3CCN(CC4CCN(c5ccc([C@@H]6c7ccc(O)cc7CC[C@@H]6c6ccccc6)cc5)CC4)CC3)c21 (stereo partly drawn) [Compound I-191, 3-(4-(4-((1-(4-((1R,2S)-6-hydroxy-2-phenyl-1,2,3,4-tetrahydronaphthalen-1-yl)phenyl)piperidin-4-yl)methyl)piperazin-1-yl)-3-methyl-2-oxo-2,3-dihydro-1H-benzo[d]imidazol-1-yl)piperidine-2,6-dione]
0.39 | O=C1CCC(N2Cc3cc(N4CCN(CC5CCN(c6ccc([C@@H]7c8ccc(O)cc8C(F)(F)C[C@@H]7c7ccc(F)cc7)cc6)CC5)CC4)ccc3C2=O)C(=O)N1 (stereo partly drawn) [Compound I-309, 3-(5-(4-((1-(4-((1R,2S)-4,4-difluoro-2-(4-fluorophenyl)-6-hydroxy-1,2,3,4-tetrahydronaphthalen-1-yl)phenyl)piperidin-4-yl)methyl)piperazin-1-yl)-1-oxoisoindolin-2-yl)piperidine-2,6-dione]
0.56 | Cc1ccccc1[C@H]1CC(F)(F)c2cc(O)ccc2[C@H]1c1ccc(N2CCC(CN3CCN(c4ccc5c(c4)CN([C@H]4CCC(=O)NC4=O)C5=O)CC3)CC2)cc1 [Compound I-322, (S)-3-(5-(4-((1-(4-((1R,2S)-4,4-difluoro-6-hydroxy-2-(o-tolyl)-1,2,3,4-tetrahydronaphthalen-1-yl)phenyl)piperidin-4-yl)methyl)piperazin-1-yl)-1-oxoisoindolin-2-yl)piperidine-2,6-dione]
1 | C[C@H]1CCc2cc(O)ccc2[C@H]1c1ccc(N2CCC(CN3CCN(c4ccc5c(c4)CN([C@H]4CCC(=O)NC4=O)C5=O)CC3)CC2)cc1 [Compound I-124, (S)-3-(5-(4-((1-(4-((1R,2S)-6-hydroxy-2-methyl-1,2,3,4-tetrahydronaphthalen-1-yl)phenyl)piperidin-4-yl)methyl)piperazin-1-yl)-1-oxoisoindolin-2-yl)piperidine-2,6-dione]
4 | C[C@]1(C2CCCCC2)CCc2cc(O)ccc2[C@H]1c1ccc(N2CCC(CN3CCN(c4ccc5c(c4)CN([C@H]4CCC(=O)NC4=O)C5=O)CC3)CC2)cc1 [Compound I-238, (S)-3-(5-(4-((1-(4-((1R,2R)-2-cyclohexyl-6-hydroxy-2-methyl-1,2,3,4-tetrahydronaphthalen-1-yl)phenyl)piperidin-4-yl)methyl)piperazin-1-yl)-1-oxoisoindolin-2-yl)piperidine-2,6-dione]
≥ 10000 | O=C1CCC(N2Cc3cc(N4CCN(CC5CCN(c6ccc([C@@H]7c8ccc(O)cc8CC[C@@H]7c7cccnc7)cc6)CC5)CC4)ccc3C2=O)C(=O)N1 (single isomer, unassigned) [Compound I-107]
0.28 | Cn1nc([C@@H]2CCC(=O)NC2=O)c2ccc(N3CCN(CC4CCN(c5ccc([C@@H]6c7ccc(O)cc7CO[C@@H]6c6ccccc6)cc5)CC4)CC3)cc21 (single isomer, unassigned) [Compound I-395]
1 | Cn1nc(C2CCC(=O)NC2=O)c2ccc(N3CCN(CC4CCN(c5ccc([C@@H]6c7ccc(O)cc7C(F)(F)C[C@@H]6c6ccccc6)cc5)CC4)CC3)cc21 (single isomer, unassigned) [Compound I-298]
0.92 | O=C1CC[C@H](N2Cc3cc(N4CCN(CC5CCN(c6ccc([C@@H]7c8ccc(O)cc8CO[C@@H]7CC7CCCC7)cc6)CC5)CC4)ccc3C2=O)C(=O)N1 (single isomer, unassigned) [Compound I-232]
1030 | CC1(C)CCC([C@@H]2CCc3cc(O)ccc3[C@@H]2c2ccc(N3CCC(CN4CCN(c5ccc6c(c5)CN([C@H]5CCC(=O)NC5=O)C6=O)CC4)CC3)cc2)CC1 (single isomer, unassigned) [Compound I-106]
10 | O=C1CCC(N2Cc3cc(N4CCN(CC5CCN(c6c(F)cc([C@@H]7c8ccc(O)cc8CC[C@@H]7C7CCCCC7)cc6F)CC5)CC4)ccc3C2=O)C(=O)N1 (stereo in doubt) [Compound I-159, (R)-3-(5-(4-((1-(4-((1R,2R)-2-cyclohexyl-6-hydroxy-1,2,3,4-tetrahydronaphthalen-1-yl)-2,6-difluorophenyl)piperidin-4-yl)methyl)piperazin-1-yl)-1-oxoisoindolin-2-yl)piperidine-2,6-dione]
0.006 | Cc1ccc([C@H]2CC(F)(F)c3cc(O)ccc3[C@H]2c2ccc(N3CCC(CN4CCN(c5ccc6c(c5)CN([C@H]5CCC(=O)NC5=O)C6=O)CC4)CC3)cc2)cc1 (single isomer, unassigned) [Compound I-320, (S)-3-(5-(4-((1-(4-((1*S, 2*R)-4,4-difluoro-6-hydroxy-2-(p-tolyl)-1,2,3,4-tetrahydronaphthalen-1-yl)phenyl)piperidin-4-yl)methyl)piperazin-1-yl)-1-oxoisoindolin-2-yl)piperidine-2,6-dione]
≥ 10000 | O=C1CC[C@H](N2Cc3cc(N4CCN(C[C@H]5CCCN(c6ccc([C@H]7c8ccc(O)cc8CC[C@H]7c7ccccc7)cc6)C5)CC4)ccc3C2=O)C(=O)N1 (single isomer, unassigned) [II-23]
332 | O=C1CC[C@H](N2Cc3cc(N4CCN(CC5CCN(c6ccc([C@@H]7c8ccc(O)cc8CC[C@@H]7c7ccc8c(c7)CCC8)cc6)CC5)CC4)ccc3C2=O)C(=O)N1 (single isomer, unassigned) [Compound I-412]
0.65 | O=C1CCC(c2ccc(N3CCC4(CCN(CC5CCN(c6ccc([C@@H]7c8ccc(O)cc8C(F)(F)C[C@@H]7c7ccccc7)cc6)CC5)C4)CC3)cc2)C(=O)N1 (stereo partly drawn) [Compound I-308, 3-(4-(2-((1-(4-((1R,2S)-4,4-difluoro-6-hydroxy-2-phenyl-1,2,3,4-tetrahydronaphthalen-1-yl)phenyl)piperidin-4-yl)methyl)-2,8-diazaspiro[4.5]decan-8-yl)phenyl)piperidine-2,6-dione]
0.39 | Cn1nc([C@H]2CCC(=O)NC2=O)c2ccc(N3CCN(CC4CCN(c5ccc([C@@H]6c7ccc(O)cc7CO[C@@H]6c6ccccc6)cc5)CC4)CC3)cc21 (single isomer, unassigned) [Compound I-394]
